Experimental data from ChEMBL document CHEMBL5233217, “Modification of 7-piperazinylquinolone antibacterials to promising anticancer lead compounds: Synthesis and in vitro studies” (Eur J Med Chem, 2020).

Tests used:
Assay type in all cases: functional, cell-based
A2780 = experiment: Anticancer activity against human cisplatin resistant A2780 cells assessed as reduction in cell viability by MTT assay
SW48 = experiment: Anticancer activity against human SW48 cells assessed as reduction in cell viability by MTT assay
HL-60 [1] = experiment: Anticancer activity against human HL-60 cells assessed as reduction in cell viability incubated for 48 hrs by MTT assay; details: HL-60, 48 h
HL-60 [2] = experiment: Anticancer activity against human HL-60 cells assessed as reduction in cell viability incubated for 24 hrs by MTT assay; details: HL-60, 24 h
HepG2 [3] = experiment: Antiproliferative activity against human HepG2 cells assessed as inhibition of cell proliferation by CCK-8 assay
MGC-803 = experiment: Antiproliferative activity against human MGC-803 cells assessed as inhibition of cell proliferation by CCK-8 assay
NCI-H460 = experiment: Antiproliferative activity against human NCI-H460 cells assessed as inhibition of cell proliferation by CCK-8 assay
PC-3 [4] = experiment: Antiproliferative activity against human PC-3 cells assessed as inhibition of cell proliferation by CCK-8 assay
SW-620 = experiment: Antiproliferative activity against human SW620 cells assessed as inhibition of cell proliferation by CCK-8 assay
MCF7 [5] = experiment: Antiproliferative activity against human MCF7 cells assessed as inhibition of cell proliferation by CCK-8 assay
A549 [6] = experiment: Anticancer activity against human A549 cells assessed as reduction in cell viability by MTT assay
CAPAN-1 = experiment: Antiproliferative activity against human CAPAN-1 cells assessed as reduction in cell viability incubated for 24 to 72 hrs by MTT assay
PANC-1 = experiment: Antiproliferative activity against human PANC-1 cells assessed as reduction in cell viability incubated for 24 to 72 hrs by MTT assay
HeLa = experiment: Antitumor activity against human HeLa cells assessed as reduction in cell viability incubated for 72 hrs by MTT assay
HepG2 [7] = experiment: Antitumor activity against human HepG2 cells assessed as reduction in cell viability incubated for 72 hrs by MTT assay; details: HepG2, 72 h
A549 [8] = experiment: Antitumor activity against human A549 cells assessed as reduction in cell viability incubated for 72 hrs by MTT assay; details: A549, 72 h
PC-3 [9] = experiment: Antitumor activity against human PC-3 cells assessed as reduction in cell viability incubated for 72 hrs by MTT assay; details: PC-3, 72 h
MCF7 [10] = experiment: Antitumor activity against human MCF7 cells assessed as reduction in cell viability incubated for 72 hrs by MTT assay; details: MCF7, 72 h
L1210 = experiment: Antiproliferative activity against mouse L1210 cells assessed as reduction in cell viability incubated for 48 hrs by MTT assay; details: L1210, 48 h
HL-60 [11] = experiment: Antiproliferative activity against human HL-60 cells assessed as reduction in cell viability incubated for 48 hrs by MTT assay; details: HL-60, 48 h

C[C@H]1COc2c(Nc3ccc(-n4c(=O)[nH][nH]c4=O)cc3)c(F)cc3c(=O)c(C(=O)O)cn1c23 was tested, and the IC50 (A2780) was no more than 43000 nM and the IC50 (SW48) was no more than 43000 nM.
COc1ccc2cc3[n+](cc2c1OC(=O)c1cn(C2CC2)c2cc(N4CCNCC4)c(F)cc2c1=O)CCc1cc2c(cc1-3)OCO2 was tested, and the IC50 (HL-60 [1]) was 15700 nM and the IC50 (HL-60 [2]) was 19300 nM.
Work on C[C@H]1COc2c(N3CCN(C)CC3)c(F)cc3c(=O)c(-c4nnc(NC(=O)CCCCCCC(=O)NO)s4)cn1c23 yielded an IC50 (HepG2 [3]) of 600 nM, an IC50 (MGC-803) of 600 nM and an IC50 (NCI-H460) of 600 nM. The IC50 (PC-3 [4]) was 600 nM, the IC50 (SW-620) was 600 nM and the IC50 (MCF7 [5]) was 600 nM.
C[C@H]1COc2c(Nn3c(=O)[nH][nH]c3=O)c(F)cc3c(=O)c(C(=O)O)cn1c23 was tested, and the IC50 (A549 [6]) was 34500 nM.
CN1CCN(c2cc3c(cc2F)c(=O)c(/C=C2\CN(C4CC4)c4cc(N5CCNCC5)c(F)cc4C2=O)cn3C2CC2)CC1 was tested, and the IC50 (CAPAN-1) was 1600 nM and the IC50 (PANC-1) was 3100 nM.
Work on C[C@H]1COc2c(N3CCN(C)CC3)c(F)cc3c(=O)c(C(=O)NCc4cn(CCCCCCC(=O)NO)nn4)cn1c23 yielded an IC50 (HeLa) of 300 nM, an IC50 (HepG2 [7]) of 300 nM and an IC50 (A549 [8]) of 300 nM. For the same molecule, the IC50 (PC-3 [9]) was 300 nM and the IC50 (MCF7 [10]) was 300 nM.
Work on O=c1c(-c2nn3c(-c4cn(C5CC5)c5cc(N6CCNCC6)c(F)cc5c4=O)nnc3s2)cn(C2CC2)c2cc(N3CCNCC3)c(F)cc12 yielded an IC50 (L1210) of 3600 nM and an IC50 (HL-60 [11]) of 540 nM.
